From patent US10052320B2, “Substituted quinoxalines as FGFR kinase inhibitors” (ASTEX THERAPEUTICS LIMITED, priority 2011, dated 2018)
Where two headings read alike, the source gives them in different places.

Tests used:
[1] = test system: Ba/F3-FGFR3-transfected cells in the presence of 10 ng/ml murine IL3; test: Ba/F3-FGFR3 (plus IL3) cellular proliferation counterscreen, Alamar Blue; format: cell-based; conditions: Mus musculus
Summary of the method: (§1)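 Ba/F3 cells transfected with FGFR3 were exposed to compound in RPMI-1640 with 10% FBS for 24 h at 37 °C, 5% CO2. Alamar Blue (resazurin) was then added for 4 h, and fluorescence was read at ex 540/em 590 nm.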

[2] = test system: Ba/F3-FGFR1-transfected cells in the presence of 10 ng/ml murine IL3; test: Ba/F3-FGFR1 (plus IL3) cellular proliferation counterscreen, Alamar Blue; format: cell-based; conditions: Mus musculus
Summary of the method: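 Cells (20000 per well in 384-well format or 10000 per well in 96-well format) in phenol red-free RPMI-1640 with 10% FBS were exposed to compound in DMSO for 24 h at 37 °C, 5% CO2. Resazurin-based Alamar Blue was then added for 4 h, and fluorescence was read at ex 540/em 590 nm.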

[3] = test system: Ba/F3-Flt3-transfected cells in the presence of 10 ng/ml murine IL3; test: Ba/F3-Flt3 (plus IL3) cellular proliferation counterscreen, Alamar Blue; format: cell-based; conditions: Mus musculus; plus 10 ng/ml murine IL3; read-out: BAF3-FLT3 (PLUS IL3) 96 well pIC50 (converted)
[4] = molecular target: Ba/F3-FGFR3-transfected cells (Homo sapiens, UniProt P22607); test: Ba/F3-FGFR3 (minus IL3) cellular proliferation assay, Alamar Blue; format: cell-based; conditions: for BAF3-FGFR 3 (MIN IL3) 96 well pIC50: minus IL3, 96 well; for BAF3-FGFR 3 (MIN IL3) 384 well pIC50: minus IL3, 384 well
Summary of the method: as §1

[5] = molecular target: FGFR2 (h) (Homo sapiens, UniProt P21802); test: FGFR2 (enzymatic assay), TR-FRET; format: biochemical; conditions: read-out: FGFR 2 pIC50 (converted)
Protocol: In a final reaction volume of 30 μL, FGFR2 (h) (150 ng/ml) was incubated with 50 mM HEPES pH 7.5, 6 mM MnCl2, 1 mM DTT, 0.1 mM Na3VO4, 0.01% Triton-X-100, 500 nM Btn-Flt3 and 0.4 μM ATP in the presence of compound (1% DMSO final). […] Time-Resolved Fluorescence Resonance Energy Transfer (TR-FRET) signal (ex340 nm. Em 620 nm, em 655 nm) was measured afterwards and results are expressed in (Relative Fluorescence Units).

[6] = molecular target: Ba/F3-FGFR4-transfected cells (Homo sapiens, UniProt P22455); test: Ba/F3-FGFR4 cellular proliferation assay, Alamar Blue; format: cell-based
Summary of the method: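 Ba/F3 cells transfected with FGFR4, 20000 cells/well in phenol red-free RPMI-1640 with 10% FBS, were exposed to compound for 24 h at 37° C, 5% CO2. Alamar Blue (resazurin) was then added for 4 h, and fluorescence was read at ex 540/em 590 nm.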

[7] = plus 10 ng/ml murine IL3, 384 well, read-out: BAF3-FGFR 3 (PLUS IL3) 384 well pIC50 (converted)
[8] = plus IL3, 96 well, read-out: BAF3-FGFR 3 (PLUS IL3) 96 well pIC50 (converted)
[9] = plus IL3, 96 well, read-out: BAF3-FGFR 1 (PLUS IL3) 96 well pIC50 (converted)
[10] = plus IL3, 384 well, read-out: BAF3-FGFR 1 (PLUS IL3) 384 well pIC50 (converted)

Chain of Ba/F3-FGFR3-transfected cells (P22607 whole entry, change not shown): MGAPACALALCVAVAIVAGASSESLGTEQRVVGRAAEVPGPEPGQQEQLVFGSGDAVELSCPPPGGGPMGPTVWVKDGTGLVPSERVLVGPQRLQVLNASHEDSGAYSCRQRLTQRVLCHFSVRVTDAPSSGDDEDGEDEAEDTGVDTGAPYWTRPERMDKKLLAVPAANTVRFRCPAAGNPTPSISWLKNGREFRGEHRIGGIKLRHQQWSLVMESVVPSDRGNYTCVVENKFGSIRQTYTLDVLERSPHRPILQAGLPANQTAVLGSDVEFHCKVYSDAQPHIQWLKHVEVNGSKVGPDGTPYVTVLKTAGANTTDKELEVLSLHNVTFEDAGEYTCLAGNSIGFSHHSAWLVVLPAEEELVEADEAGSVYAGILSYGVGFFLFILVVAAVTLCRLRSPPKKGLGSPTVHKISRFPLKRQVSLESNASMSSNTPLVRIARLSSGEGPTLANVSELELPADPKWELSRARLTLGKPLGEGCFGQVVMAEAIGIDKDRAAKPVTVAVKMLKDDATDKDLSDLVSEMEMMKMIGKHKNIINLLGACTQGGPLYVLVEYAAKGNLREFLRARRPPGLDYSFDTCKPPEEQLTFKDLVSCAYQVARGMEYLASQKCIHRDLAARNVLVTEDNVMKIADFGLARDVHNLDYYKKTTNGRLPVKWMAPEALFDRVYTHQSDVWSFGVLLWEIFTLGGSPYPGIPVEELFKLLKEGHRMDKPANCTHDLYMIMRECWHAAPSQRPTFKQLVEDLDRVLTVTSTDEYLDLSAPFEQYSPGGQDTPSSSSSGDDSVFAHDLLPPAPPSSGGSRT
Chain of FGFR2 (h) (P21802 22-821): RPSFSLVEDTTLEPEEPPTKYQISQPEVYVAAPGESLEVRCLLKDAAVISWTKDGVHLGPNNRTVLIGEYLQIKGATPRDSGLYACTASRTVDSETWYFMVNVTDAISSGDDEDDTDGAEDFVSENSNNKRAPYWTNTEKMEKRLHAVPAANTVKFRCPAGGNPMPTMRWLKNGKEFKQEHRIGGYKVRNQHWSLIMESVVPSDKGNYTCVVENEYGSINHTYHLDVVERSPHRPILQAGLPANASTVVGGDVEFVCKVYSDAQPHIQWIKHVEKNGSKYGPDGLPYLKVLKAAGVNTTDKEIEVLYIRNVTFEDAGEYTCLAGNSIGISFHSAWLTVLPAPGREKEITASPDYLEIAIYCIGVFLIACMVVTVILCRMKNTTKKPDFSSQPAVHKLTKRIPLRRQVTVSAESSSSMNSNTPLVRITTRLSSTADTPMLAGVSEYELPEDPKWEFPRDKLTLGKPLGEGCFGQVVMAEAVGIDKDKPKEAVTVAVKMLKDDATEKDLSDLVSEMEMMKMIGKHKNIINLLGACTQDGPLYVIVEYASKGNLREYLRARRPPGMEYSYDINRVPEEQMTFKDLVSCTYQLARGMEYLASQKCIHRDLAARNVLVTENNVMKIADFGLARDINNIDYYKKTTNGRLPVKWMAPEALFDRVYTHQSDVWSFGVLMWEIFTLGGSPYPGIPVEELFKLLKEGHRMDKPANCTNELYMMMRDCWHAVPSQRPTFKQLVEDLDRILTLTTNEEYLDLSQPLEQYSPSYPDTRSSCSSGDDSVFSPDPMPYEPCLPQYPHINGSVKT
Chain of Ba/F3-FGFR4-transfected cells (P22455 whole entry, change not shown): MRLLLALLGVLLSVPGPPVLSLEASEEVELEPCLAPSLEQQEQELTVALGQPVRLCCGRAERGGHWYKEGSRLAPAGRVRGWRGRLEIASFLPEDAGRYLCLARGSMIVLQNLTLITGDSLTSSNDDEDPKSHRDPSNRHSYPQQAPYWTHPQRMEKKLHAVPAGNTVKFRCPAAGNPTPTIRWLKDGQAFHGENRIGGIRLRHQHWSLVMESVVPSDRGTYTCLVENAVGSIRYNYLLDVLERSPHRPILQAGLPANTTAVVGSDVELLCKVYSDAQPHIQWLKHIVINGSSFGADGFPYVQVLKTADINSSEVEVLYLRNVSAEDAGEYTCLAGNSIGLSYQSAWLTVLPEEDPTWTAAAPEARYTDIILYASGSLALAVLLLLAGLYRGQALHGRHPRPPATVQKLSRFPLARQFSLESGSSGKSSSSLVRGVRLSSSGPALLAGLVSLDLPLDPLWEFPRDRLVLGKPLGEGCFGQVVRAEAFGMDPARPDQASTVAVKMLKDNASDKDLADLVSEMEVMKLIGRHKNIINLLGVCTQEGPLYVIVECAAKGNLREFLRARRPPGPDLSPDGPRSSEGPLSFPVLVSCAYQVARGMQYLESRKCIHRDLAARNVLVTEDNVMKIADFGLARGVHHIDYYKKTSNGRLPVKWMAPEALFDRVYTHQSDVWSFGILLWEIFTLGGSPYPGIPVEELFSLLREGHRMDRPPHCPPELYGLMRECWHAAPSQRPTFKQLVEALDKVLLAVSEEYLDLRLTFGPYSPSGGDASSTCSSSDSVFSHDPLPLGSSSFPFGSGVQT

BAF3-FGFR 3 (MIN IL3) 96 well pIC50 [4] | BAF3-FGFR 3 (MIN IL3) 384 well pIC50 [4] | IC50 [5] | BAF3-FGFR4 pIC50 [6] | Compound | IC50 [1, 7] | IC50 [1, 8] | IC50 [2, 9] | IC50 [2, 10] | IC50 [3]
5.94 | 5.51 | 0.0676 µM | <5.35 | COc1cc(OC)cc(N(CC2CC2)c2ccc3ncc(-n4cnc(C)c4)nc3c2)c1 [Compound 30] | > 10 µM | > 10 µM | > 10 µM | > 10 µM | > 10 µM
5.04 | ~5.15 | 0.0891 µM | ~5.0 | COc1cc(OC)cc(N(CC2CC2)c2ccc3ncc(-c4cn(CCO)nn4)nc3c2)c1 [Compound 40] | > 10 µM | > 10 µM | > 10 µM | > 10 µM | > 10 µM
<5 | <5 | ~0.708 µM | <5 | COc1cc(OC)cc(N(CC2CC2)c2ccc3ncc(-n4cncn4)nc3c2)c1 [Compound 50] | > 10 µM | > 10 µM | > 10 µM | > 10 µM | > 10 µM
 |  |  |  | COc1cc(OC)cc(N(CC2CC2)c2ccc3ncc(-c4cnn(C)n4)nc3c2)c1 [Compound 70] | > 10 µM | > 10 µM | > 10 µM | > 10 µM | > 10 µM
 |  |  |  | COc1cc(OC)cc(N(CC2CC2)c2ccc3ncc(-c4cn(C)nn4)nc3c2)c1 [Compound 71] | > 10 µM | > 10 µM | > 10 µM | > 10 µM | > 10 µM
<5 | <5 | > 1 µM | <5 | COc1cc(OC)cc(N(CC2CC2)c2ccc3ncc(-c4nnnn4C)nc3c2)c1 [Compound 83] | > 10 µM | > 10 µM | > 10 µM | > 10 µM | > 10 µM
